Values of other authors as cited in patent US20250090617A1, “FORMULATIONS FOR TREATING OBESITY AND DIABETES AND FOR PROVIDING OTHER HEALTH RELATED BENEFITS” (Healthrite Partners, LLC, priority 2019, published 2025).

Test system: cellular ATP
Conditions: several studies, including clinical studies in humans
For OC[C@H]1O[C@@H](n2cnc3c(O)ncnc32)[C@H](O)[C@@H]1O [Inosine], the “effect on cellular ATP” value is given as “did not affect ATP levels”.
For Oc1ncnc2[nH]ncc12 [Allopurinol], the “effect on cellular ATP” value is listed as “increase in cellular ATP”.
In the case of Cc1nc(-c2ccc(OCC(C)C)c(C#N)c2)sc1C(=O)O [Febuxostat], the “effect on cellular ATP” value is listed as “increase in cellular ATP”.
